Assay results from US4372973A, “16-Amino-postaglandin derivatives, their acid addition salts, and a process for the preparation thereof” (priority 1981, dated 1983).
“Also recorded” adds a separate entry of the source.

What was measured:
[1] = test system: 15-hydroxy-prostaglandin-dehydrogenase; assay: 15-Hydroxy-prostaglandin-dehydrogenase substrate test; type: in vitro ADME; set-up: key: substrate; O: no substrate of the enzyme; details: In this test the concentration of the compounds 1.10^-4 mole/lit.
Procedure: Beyond these tests it was determined according to P. Tolnay et al. (Acta Biochim. Biophys. Acad. Sci. Hung. 14, 67 (1979)) whether the compounds of the invention are substrates of the 15-hydroxy-prostaglandin-dehydrogenaseenzyme.

guinea pig trachea = assay: Smooth muscle contraction, trachea; type: cell-based; set-up: key: +: contraction on trachea; O: inactive on trachea; details: 1 μg/ml
From the text: (§1) The compounds prepared according to the process of the invention were submitted to several tests developed for detecting the effects of 9α, 11α, 15(S)-trihydroxy-5-cis, 13-trans-prostadienoic acid (PGF2α). From the organs containing smooth muscle guinea pig trachea, ileum and rat uterine horn were used in the trials. The organs were suspended in isotonic salt medium and the potency was registered on the basis of isotonic contractions (Pharmacological Experiments on Isolated Preparations, Ed. W. L. M. Perry and E. S. Livingstone, Edinburgh and London (1970)). The effect exerted on the aggregation of human blood platelets, induced by 5.10^-5 mole/lit. of adenosine-5'-phosphate, was measured in a CHRONO LOG Aggregometer according to A. V. R. Born (J. Physiol. 162, 67 (1962)).

[2] = Laxative effect (diarrhea) at abortive doses; type: in vivo, white mice
Procedure: (§2) The favorable biological properties of the new compounds of the invention are clearly manifested in their abortive effect. The test materials were administered subcutaneously to white mice on the 17th or 18th day of pregnancy, then the deliveries were followed up in the subsequent 48 hours, and the overall status of the excised uterus (scars, embrional residual debris) was evaluated (M. J. R. Harper et al.: Advances in Biosciences 9, 789 (1973)). In groups containing 5 animals the dose effect relationships of PGF2α, its methyl ester, as well as of the new 16-amino-prostaglandin derivatives were determined.

guinea pig ileum = assay: Smooth muscle contraction, ileum; type: cell-based; details: PGF2α = 1.00
From the text: as §1

human blood platelets = assay: Inhibition of blood platelet aggregation; type: cell-based; details: 100 μg/ml, induced by 5.10^-5 mole/lit. of adenosine-5'-phosphate
From the text: as §1

[3] = test system: white mice on the 17th or 18th day of pregnancy; assay: Abortive effect in pregnant mice; type: in vivo; details: s.c.; for ED50: Mus musculus, sc, 48 h, body weight, white mice, 17th or 18th day of pregnancy, 5 animals per group
Procedure: as §2

rat uterine horn = assay: Smooth muscle contraction, uterus; type: cell-based; details: PGF2α = 1.00
From the text: as §1

SMILES	15-Hydroxy-prostaglandin-dehydrogenase (substrate or no substrate) [1]	laxative effect ([2]; at abortive doses)	laxative effect ([2]; mouse, in vivo)	diarrhea ([2]; even at the tenfold of the abortive dose)	Smooth muscle contraction Trachea (guinea pig trachea)	Smooth muscle contraction relative efficiency Ileum (guinea pig ileum)	inhibition at 100 µg/mL (human blood platelets) [%]	ED50 [3] [mg/kg]	Smooth muscle contraction relative efficiency Uterus (rat uterine horn)	abortive potency (in words) ([3]; mice, compared to PGF2α, listed as 9 α, 11 α, 15(ksi)-trihydroxy-16(S)-amino-5-cis, 13-trans-prostadienoic acid met)
CCCCC[C@H](O)/C=C/[C@@H]1[C@@H](C/C=C\CCCC(=O)OC)[C@@H](O)C[C@H]1O [PGF2α methyl ester, reference compound]	s	exhibit also a laxative effect	–	–	+	0.78	56	6	1.25	–
CCCC[C@H](N)C(O)/C=C/[C@@H]1[C@@H](C/C=C\CCCC(=O)O)[C@@H](O)C[C@H]1O (single isomer, unassigned)	O	–	–	–	–	0.11	75	–	0.83	–
CCCCC[C@H](O)/C=C/[C@@H]1[C@@H](C/C=C\CCCC(=O)O)[C@@H](O)C[C@H]1O [PGF2α, 9α, 11α, 15(S)-trihydroxy-5-cis, 13-trans-prostadienoic acid, reference compound]	s	–	exhibit also a laxative effect	–	+	1.00	82	20	1.00	–

Further lines, with some results ahead:

15-Hydroxy-prostaglandin-dehydrogenase (substrate or no substrate) [1]	laxative effect ([2]; at abortive doses)	laxative effect ([2]; mouse, in vivo)	diarrhea ([2]; even at the tenfold of the abortive dose)	SMILES	Smooth muscle contraction Trachea (guinea pig trachea)	Smooth muscle contraction relative efficiency Ileum (guinea pig ileum)	inhibition at 100 µg/mL (human blood platelets) [%]	ED50 [3] [mg/kg]	Smooth muscle contraction relative efficiency Uterus (rat uterine horn)	abortive potency (in words) ([3]; mice, compared to PGF2α, listed as 9 α, 11 α, 15(ksi)-trihydroxy-16(S)-amino-5-cis, 13-trans-prostadienoic acid met)
O	–	–	–	CCCC[C@@H](N)C(O)/C=C/[C@@H]1[C@@H](C/C=C\CCCC(=O)OC)[C@@H](O)C[C@H]1O (single isomer, unassigned)	O	0.02	–	–	0.05	–
O	–	–	–	CCCC[C@@H](N)C(O)/C=C/[C@@H]1[C@@H](C/C=C\CCCC(=O)O)[C@@H](O)C[C@H]1O (single isomer, unassigned)	O	0.02	–	–	0.13	–
O	–	–	no diarrhea is observed	CCCC[C@H](N)C(O)/C=C/[C@@H]1[C@@H](C/C=C\CCCC(=O)OC)[C@@H](O)C[C@H]1O (single isomer, unassigned)	O	0.17	52	0.1	0.99	exceedingly high abortive effect; also recorded: the most active agent
